Source: ChEMBL document CHEMBL4699433, “Rational design, synthesis and testing of novel tricyclic topoisomerase inhibitors for the treatment of bacterial infections part 2” (RSC Med Chem, 2020)
pIC50: −log10 of the molar value. Converted amounts (≈) assume the structure as drawn.

Legend:
Staphylococcus aureus [1] = test: Antibacterial activity against wild type methicillin-sensitive Staphylococcus aureus ATCC 29213 assessed as reduction in bacterial growth by CLSI based broth microdilution method; type: functional
Streptococcus pneumoniae = test: Antibacterial activity against Streptococcus pneumoniae ATCC 49619 assessed as reduction in bacterial growth by CLSI based broth microdilution method; type: functional
Escherichia coli = test: Antibacterial activity against Escherichia coli ATCC 25922 assessed as reduction in bacterial growth by CLSI based broth microdilution method; type: functional
Haemophilus influenzae = test: Antibacterial activity against Haemophilus influenzae ATCC 49247 assessed as reduction in bacterial growth by CLSI based broth microdilution method; type: functional
Staphylococcus aureus [2] = test: Antibacterial activity against methicillin-resistant Staphylococcus aureus N315 NRS70 assessed as reduction in bacterial growth by CLSI based broth microdilution method; type: functional
Staphylococcus aureus [3] = test: Antibacterial activity against COL-resistant, methicillin-resistant Staphylococcus aureus NRS100 assessed as reduction in bacterial growth by CLSI based broth microdilution method; type: functional
Staphylococcus aureus [4] = test: Antibacterial activity against AMG-, QAC-, TMP- resistant methicillin- resistant Staphylococcus aureus NRS106 assessed as reduction in bacterial growth by CLSI based broth microdilution method; type: functional
Staphylococcus aureus [5] = test: Antibacterial activity against MUP resistant (RN4220 + pGO400), methicillin-resistant Staphylococcus aureus NRS107 assessed as reduction in bacterial growth by CLSI based broth microdilution method; type: functional
Staphylococcus aureus [6] = test: Antibacterial activity against AMG-resistant, methicillin-resistant Staphylococcus aureus NRS108 assessed as reduction in bacterial growth by CLSI based broth microdilution method; type: functional
Staphylococcus aureus [7] = test: Antibacterial activity against CA-MRSA ERY-, TET-resistant, FQ Int resistant (USA300 LAC) Staphylococcus aureus NRS384 assessed as reduction in bacterial growth by CLSI based broth microdilution method; type: functional
Staphylococcus aureus [8] = test: Antibacterial activity against Staphylococcus aureus ATCC 43300 assessed as reduction in bacterial growth by CLSI based broth microdilution method; type: functional
Staphylococcus aureus [9] = test: Antibacterial activity against FQ-resistant methicillin-resistant Staphylococcus aureus NRS74 assessed as reduction in bacterial growth by CLSI based broth microdilution method; type: functional
Staphylococcus aureus [10] = test: Antibacterial activity against AMG- and TET-resistant (Mu50) GyrA (S84L,E409L), GrlA (S80F), methicillin-resistant Staphylococcus aureus NRS1 assessed as reduction in bacterial growth by CLSI based broth microdilution method; type: functional
Staphylococcus aureus [11] = test: Antibacterial activity against LZD-resistant, methicillin-resistant Staphylococcus aureus NRS127 assessed as reduction in bacterial growth by CLSI based broth microdilution method; type: functional
Staphylococcus aureus [12] = test: Antibacterial activity against Staphylococcus aureus VRS1 assessed as reduction in bacterial growth by CLSI based broth microdilution method; type: functional
Staphylococcus aureus [13] = test: Antibacterial activity against FQ-resistant, methicillin-resistant Staphylococcus aureus NRS482 assessed as reduction in bacterial growth by CLSI based broth microdilution method; type: functional
Staphylococcus aureus [14] = test: Antibacterial activity against LZD-resistant methicillin-resistant Staphylococcus aureus NRS271 assessed as reduction in bacterial growth by CLSI based broth microdilution method; type: functional
Staphylococcus aureus [15] = test: Antibacterial activity against VAN resistant methicillin- resistant Staphylococcus aureus VRS8 assessed as reduction in bacterial growth by CLSI based broth microdilution method; type: functional
Enterococcus faecalis = test: Antibacterial activity against wild type Enterococcus faecalis ATCC 29212 assessed as reduction in bacterial growth by CLSI based broth microdilution method; type: functional
[16] = system: Staphylococcus epidermidis; test: Antibacterial activity against wild type Staphylococcus epidermidis ATCC 12228 assessed as reduction in bacterial growth by CLSI based broth microdilution method; type: functional
[17] = system: Staphylococcus epidermidis; test: Antibacterial activity against MRSE AMG-, ERY-resistant Staphylococcus epidermidis NRS101 assessed as reduction in bacterial growth by CLSI based broth microdilution method; type: functional
Enterococcus faecium [18] = test: Antibacterial activity against wild type Enterococcus faecium ATCC 19434 assessed as reduction in bacterial growth by CLSI based broth microdilution method; type: functional
Enterococcus faecium [19] = test: Antibacterial activity against VAN-resistant Enterococcus faecium ATCC 700221 assessed as reduction in bacterial growth by CLSI based broth microdilution method; type: functional
Streptococcus pyogenes = test: Antibacterial activity against wild type Streptococcus pyogenes ATCC 19615 assessed as reduction in bacterial growth by CLSI based broth microdilution method; type: functional
Neisseria gonorrhoeae [20] = test: Antibacterial activity against wild-type Neisseria gonorrhoeae ATCC 49226 assessed as reduction in bacterial growth by agar dilution method; type: functional
Neisseria gonorrhoeae [21] = test: Antibacterial activity against wild type Neisseria gonorrhoeae ATCC 700825 assessed as reduction in bacterial growth by agar dilution method; type: functional
[22] = Cytotoxicity against human HepG2 cells; type: cell-based
[23] = Protein binding in human plasma assessed as free fraction; type: ADME, cell-free
[24] = Intrinsic clearance in human hepatocytes assessed per 10^6 cells; type: ADME, cell-based, Hepatocyte; settings: read-out: CLH
[25] = Efflux ratio of permeability in human Caco2 cells; type: ADME, cell-based; settings: Caco-2
Cytochrome P450 1A2 = Cytochrome P450 1A2 (Homo sapiens, UniProt P05177); test: Inhibition of CYP1A2 (unknown origin); type: ADME
Cytochrome P450 2C9 = Cytochrome P450 2C9 (Homo sapiens, UniProt P11712); test: Inhibition of CYP2C9 (unknown origin); type: ADME
Cytochrome P450 2C19 = Cytochrome P450 2C19 (Homo sapiens, UniProt P33261); test: Inhibition of CYP2C19 (unknown origin); type: ADME
Cytochrome P450 2D6 = Cytochrome P450 2D6 (Homo sapiens, UniProt P10635); test: Inhibition of CYP2D6 (unknown origin); type: ADME
Cytochrome P450 3A4 = Cytochrome P450 3A4 (Homo sapiens, UniProt P08684); test: Inhibition of CYP3A4 (unknown origin); type: ADME
[26] = Kinetic solubility of compound at pH 7.4; type: physicochemical; settings: buffer, read-out: Kinetic_solubility
[27] = molecular target: Voltage-gated inwardly rectifying potassium channel KCNH2 (Homo sapiens, UniProt Q12809); test: Inhibition of human ERG by patch clamp assay
[28] = molecular target: Sodium channel protein type 5 subunit alpha (Homo sapiens, UniProt Q14524); test: Inhibition of Nav1.5 (unknown origin) by patch clamp assay
[29] = molecular target: Voltage-dependent L-type calcium channel subunit alpha-1C (Homo sapiens, UniProt Q13936); test: Inhibition of Cav1.2 (unknown origin) by patch clamp assay
TK6 [30] = test: Genotoxicity in human TK6 cells at 200 uM in absence of S9 fraction by BlueScreen assay; type: toxicity, cell-based; settings: tk6, 200 µM
TK6 [31] = test: Genotoxicity in human TK6 cells at 200 uM in presence of S9 fraction by BlueScreen assay; type: toxicity, cell-based; settings: s9, 200 µM
[32] = Apparent permeability in human Caco2 cells; type: ADME, cell-based; settings: Caco-2
Staphylococcus aureus [33] = test: Antibacterial activity against Staphylococcus aureus clinical isolate assessed as reduction in bacterial growth by CLSI based broth microdilution method; type: functional
DNA gyrase = DNA gyrase (Staphylococcus aureus, UniProt P0A0K8+P20831); test: Inhibition of Staphylococcus aureus DNA gyrase using relaxed pBR322 as substrate incubated for 30 mins by ethidium bromide staining based gel electrophoresis analysis; type: protein-complex assay
Topoisomerase IV = Topoisomerase IV (Staphylococcus aureus, UniProt P0C1S7+P0C1U9); test: Inhibition of Staphylococcus aureus topoisomerase IV using kDNA as substrate incubated for 30 mins by ethidium bromide staining based gel electrophoresis analysis; type: protein-complex assay
[34] = Thermodynamic solubility of the compound; type: physicochemical; settings: read-out: Therm_solubility

Sequence of Cytochrome P450 2C9 (P11712 whole entry): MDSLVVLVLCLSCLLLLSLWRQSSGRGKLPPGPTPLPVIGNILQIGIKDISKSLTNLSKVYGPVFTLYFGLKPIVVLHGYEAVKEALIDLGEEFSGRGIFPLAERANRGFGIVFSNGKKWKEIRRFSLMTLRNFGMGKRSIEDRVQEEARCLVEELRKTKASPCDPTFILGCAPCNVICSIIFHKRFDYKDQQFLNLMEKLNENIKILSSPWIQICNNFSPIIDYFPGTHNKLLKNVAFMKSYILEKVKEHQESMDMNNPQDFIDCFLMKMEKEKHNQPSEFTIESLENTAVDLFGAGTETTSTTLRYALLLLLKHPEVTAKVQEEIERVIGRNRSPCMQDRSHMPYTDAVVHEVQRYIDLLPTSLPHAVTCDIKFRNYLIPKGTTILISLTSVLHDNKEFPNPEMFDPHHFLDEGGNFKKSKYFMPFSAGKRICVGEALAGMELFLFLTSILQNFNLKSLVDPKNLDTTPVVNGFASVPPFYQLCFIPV
Sequence of Cytochrome P450 2C19 (P33261 whole entry): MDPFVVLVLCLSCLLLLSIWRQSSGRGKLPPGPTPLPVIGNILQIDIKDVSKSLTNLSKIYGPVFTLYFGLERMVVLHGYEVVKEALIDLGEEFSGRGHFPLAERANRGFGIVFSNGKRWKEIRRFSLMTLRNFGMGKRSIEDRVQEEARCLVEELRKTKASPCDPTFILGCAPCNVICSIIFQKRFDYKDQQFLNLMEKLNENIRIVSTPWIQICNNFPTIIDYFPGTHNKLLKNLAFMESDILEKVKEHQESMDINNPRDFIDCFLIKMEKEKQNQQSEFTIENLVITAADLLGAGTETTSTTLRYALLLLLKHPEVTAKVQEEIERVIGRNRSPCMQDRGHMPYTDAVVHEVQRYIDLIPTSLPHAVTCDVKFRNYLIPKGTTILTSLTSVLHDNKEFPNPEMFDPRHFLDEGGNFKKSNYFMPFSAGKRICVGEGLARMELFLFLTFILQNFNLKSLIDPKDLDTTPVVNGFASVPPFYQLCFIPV
Sequence of Cytochrome P450 3A4 (P08684 whole entry): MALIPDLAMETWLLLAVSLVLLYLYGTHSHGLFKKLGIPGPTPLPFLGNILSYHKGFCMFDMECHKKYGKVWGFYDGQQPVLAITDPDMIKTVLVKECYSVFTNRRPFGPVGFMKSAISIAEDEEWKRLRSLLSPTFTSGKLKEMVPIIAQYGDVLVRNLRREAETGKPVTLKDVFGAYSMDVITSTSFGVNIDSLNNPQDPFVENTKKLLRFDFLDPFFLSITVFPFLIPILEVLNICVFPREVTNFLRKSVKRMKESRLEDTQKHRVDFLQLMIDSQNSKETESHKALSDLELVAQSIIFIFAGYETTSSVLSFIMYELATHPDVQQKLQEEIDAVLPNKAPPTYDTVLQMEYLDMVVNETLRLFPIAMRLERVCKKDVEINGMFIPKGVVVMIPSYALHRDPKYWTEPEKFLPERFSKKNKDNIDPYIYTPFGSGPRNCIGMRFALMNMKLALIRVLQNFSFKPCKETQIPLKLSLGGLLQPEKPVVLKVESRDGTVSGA
Sequence of Voltage-dependent L-type calcium channel subunit alpha-1C (Q13936 whole entry): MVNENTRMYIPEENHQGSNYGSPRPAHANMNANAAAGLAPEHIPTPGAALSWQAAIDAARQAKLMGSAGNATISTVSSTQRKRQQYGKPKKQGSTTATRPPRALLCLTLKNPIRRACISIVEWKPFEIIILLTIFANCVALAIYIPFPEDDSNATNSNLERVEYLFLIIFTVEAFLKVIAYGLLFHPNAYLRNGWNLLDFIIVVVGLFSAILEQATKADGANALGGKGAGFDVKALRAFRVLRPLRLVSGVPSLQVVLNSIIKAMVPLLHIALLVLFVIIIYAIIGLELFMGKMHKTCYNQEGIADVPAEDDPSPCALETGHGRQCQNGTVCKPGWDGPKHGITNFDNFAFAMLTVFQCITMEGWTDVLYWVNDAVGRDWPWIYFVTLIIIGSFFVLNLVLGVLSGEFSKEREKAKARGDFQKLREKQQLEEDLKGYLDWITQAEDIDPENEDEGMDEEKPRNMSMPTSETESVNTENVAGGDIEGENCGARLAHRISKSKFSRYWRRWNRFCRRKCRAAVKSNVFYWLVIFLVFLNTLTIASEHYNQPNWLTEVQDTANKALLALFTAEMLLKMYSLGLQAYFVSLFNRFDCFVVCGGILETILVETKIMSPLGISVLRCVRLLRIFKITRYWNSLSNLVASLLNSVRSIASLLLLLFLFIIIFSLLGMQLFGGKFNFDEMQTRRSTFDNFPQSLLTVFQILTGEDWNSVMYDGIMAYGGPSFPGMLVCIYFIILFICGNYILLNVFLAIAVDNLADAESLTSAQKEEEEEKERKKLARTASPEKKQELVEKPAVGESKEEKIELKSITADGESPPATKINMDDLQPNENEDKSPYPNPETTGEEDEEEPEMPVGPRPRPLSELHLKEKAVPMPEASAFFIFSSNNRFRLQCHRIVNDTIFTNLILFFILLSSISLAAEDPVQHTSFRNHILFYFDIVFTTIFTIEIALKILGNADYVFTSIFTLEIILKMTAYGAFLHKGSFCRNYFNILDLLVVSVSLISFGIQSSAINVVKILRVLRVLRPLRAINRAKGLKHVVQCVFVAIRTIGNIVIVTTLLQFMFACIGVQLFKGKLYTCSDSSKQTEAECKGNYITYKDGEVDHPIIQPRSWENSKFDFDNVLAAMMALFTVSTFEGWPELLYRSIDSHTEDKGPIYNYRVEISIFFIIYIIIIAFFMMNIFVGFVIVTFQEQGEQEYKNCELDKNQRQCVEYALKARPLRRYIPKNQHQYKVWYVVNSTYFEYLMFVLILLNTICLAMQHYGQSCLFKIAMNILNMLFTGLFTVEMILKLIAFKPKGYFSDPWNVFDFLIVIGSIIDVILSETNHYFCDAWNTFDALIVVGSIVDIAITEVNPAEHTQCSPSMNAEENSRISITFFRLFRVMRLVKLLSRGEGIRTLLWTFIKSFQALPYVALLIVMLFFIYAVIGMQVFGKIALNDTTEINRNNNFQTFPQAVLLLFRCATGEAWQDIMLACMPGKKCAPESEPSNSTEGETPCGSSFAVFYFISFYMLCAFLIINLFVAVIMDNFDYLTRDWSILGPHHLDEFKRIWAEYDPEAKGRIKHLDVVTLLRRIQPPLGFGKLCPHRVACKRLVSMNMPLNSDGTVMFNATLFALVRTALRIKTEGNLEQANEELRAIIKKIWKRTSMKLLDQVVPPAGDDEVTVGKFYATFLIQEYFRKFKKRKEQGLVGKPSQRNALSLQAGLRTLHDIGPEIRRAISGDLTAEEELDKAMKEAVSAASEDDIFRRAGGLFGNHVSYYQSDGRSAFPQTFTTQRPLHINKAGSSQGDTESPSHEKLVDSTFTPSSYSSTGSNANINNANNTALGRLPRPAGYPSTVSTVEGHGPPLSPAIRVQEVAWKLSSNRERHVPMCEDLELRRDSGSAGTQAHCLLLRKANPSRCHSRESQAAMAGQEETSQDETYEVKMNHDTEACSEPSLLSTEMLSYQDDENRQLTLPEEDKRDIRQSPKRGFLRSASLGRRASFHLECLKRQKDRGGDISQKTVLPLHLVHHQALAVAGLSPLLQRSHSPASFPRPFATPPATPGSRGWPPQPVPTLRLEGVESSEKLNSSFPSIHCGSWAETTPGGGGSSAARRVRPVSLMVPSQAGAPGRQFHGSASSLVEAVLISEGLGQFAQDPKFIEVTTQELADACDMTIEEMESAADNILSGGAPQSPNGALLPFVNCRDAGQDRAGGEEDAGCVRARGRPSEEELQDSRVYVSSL
Sequence of Cytochrome P450 2D6 (P10635 whole entry): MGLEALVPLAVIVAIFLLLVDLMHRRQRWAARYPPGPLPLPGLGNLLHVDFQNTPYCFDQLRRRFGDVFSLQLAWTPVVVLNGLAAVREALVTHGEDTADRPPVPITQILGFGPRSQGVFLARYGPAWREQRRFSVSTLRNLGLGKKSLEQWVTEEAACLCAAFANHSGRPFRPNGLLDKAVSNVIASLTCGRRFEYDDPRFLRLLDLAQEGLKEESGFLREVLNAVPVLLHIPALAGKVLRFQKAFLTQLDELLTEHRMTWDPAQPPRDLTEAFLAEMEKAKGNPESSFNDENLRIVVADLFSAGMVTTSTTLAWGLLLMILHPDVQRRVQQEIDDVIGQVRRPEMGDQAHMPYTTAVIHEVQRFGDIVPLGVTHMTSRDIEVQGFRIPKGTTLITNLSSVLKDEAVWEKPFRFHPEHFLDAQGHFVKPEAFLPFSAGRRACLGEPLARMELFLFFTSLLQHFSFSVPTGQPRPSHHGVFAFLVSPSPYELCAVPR
Sequence of Cytochrome P450 1A2 (P05177 whole entry): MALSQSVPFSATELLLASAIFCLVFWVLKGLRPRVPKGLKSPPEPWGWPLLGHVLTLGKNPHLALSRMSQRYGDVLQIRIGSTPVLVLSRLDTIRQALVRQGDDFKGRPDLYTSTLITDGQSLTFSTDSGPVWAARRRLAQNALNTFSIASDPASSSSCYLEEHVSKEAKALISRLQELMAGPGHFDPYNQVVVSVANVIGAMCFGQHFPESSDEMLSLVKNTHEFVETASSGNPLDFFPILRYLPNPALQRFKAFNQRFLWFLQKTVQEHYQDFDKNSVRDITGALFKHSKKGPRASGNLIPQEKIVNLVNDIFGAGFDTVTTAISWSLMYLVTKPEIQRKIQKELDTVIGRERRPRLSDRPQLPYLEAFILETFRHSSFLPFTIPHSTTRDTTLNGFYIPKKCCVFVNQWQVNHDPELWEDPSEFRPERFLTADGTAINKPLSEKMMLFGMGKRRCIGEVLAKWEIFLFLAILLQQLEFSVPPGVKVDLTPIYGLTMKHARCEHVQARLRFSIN

SMILES: Cc1nc2c(=O)n(C3CC3)c3c(Cl)c(N4CC[C@@H]([C@H](C)N)C4)c(F)cc3c2o1
- MIC (Staphylococcus aureus [1]): 0.06 µg/mL (≈ 0.148 µM)
- MIC (Streptococcus pneumoniae): 0.015 µg/mL (≈ 0.037 µM)
- MIC (Escherichia coli): 0.5 µg/mL (≈ 1.23 µM)
- MIC (Haemophilus influenzae): 1 µg/mL (≈ 2.47 µM)
- MIC (Staphylococcus aureus [2]): 0.06 µg/mL (≈ 0.148 µM)
- MIC (Staphylococcus aureus [3]): 0.12 µg/mL (≈ 0.296 µM)
- MIC (Staphylococcus aureus [4]): 0.12 µg/mL (≈ 0.296 µM)
- MIC (Staphylococcus aureus [5]): 0.12 µg/mL
- MIC (Staphylococcus aureus [6]): 0.12 µg/mL (≈ 0.296 µM)
- MIC (Staphylococcus aureus [7]): 0.12 µg/mL (≈ 0.296 µM)
- MIC (Staphylococcus aureus [8]): 0.12 µg/mL (≈ 0.296 µM)
- MIC (Staphylococcus aureus [9]): 0.12 µg/mL (≈ 0.296 µM)
- MIC (Staphylococcus aureus [10]): 0.25 µg/mL (≈ 0.617 µM)
- MIC (Staphylococcus aureus [11]): 0.5 µg/mL (≈ 1.23 µM)
- MIC (Staphylococcus aureus [12]): 0.5 µg/mL (≈ 1.23 µM)
- MIC (Staphylococcus aureus [13]): 0.12 µg/mL (≈ 0.296 µM)
- MIC (Staphylococcus aureus [14]): 0.5 µg/mL (≈ 1.23 µM)
- MIC (Staphylococcus aureus [15]): 0.5 µg/mL (≈ 1.23 µM)
- MIC (Enterococcus faecalis): 0.12 µg/mL (≈ 0.296 µM)
- MIC [16]: 0.06 µg/mL (≈ 0.148 µM)
- MIC [17]: 1 µg/mL (≈ 2.47 µM)
- MIC (Enterococcus faecium [18]): 8 µg/mL (≈ 19.8 µM)
- MIC (Enterococcus faecium [19]): 8 µg/mL (≈ 19.8 µM)
- MIC (Streptococcus pyogenes): 0.015 µg/mL (≈ 0.037 µM)
- MIC (Neisseria gonorrhoeae [20]): 0.12 µg/mL (≈ 0.296 µM)
- MIC (Neisseria gonorrhoeae [21]): 0.03 µg/mL (≈ 0.0741 µM)
- CC50 [22]: 32 µg/mL (≈ 79 µM)
- fraction unbound [23]: 0.244
- hepatocyte CLint [24]: 3 µL/min/1e6 cells
- efflux ratio [25]: 2.2
- pIC50 (Cytochrome P450 1A2): 4.52
- pIC50 (Cytochrome P450 2C9): 4.79
- pIC50 (Cytochrome P450 2C19): 4.52
- pIC50 (Cytochrome P450 2D6): 4.52
- pIC50 (Cytochrome P450 3A4): 4.76
- solubility kinetic [26]: > 100 µM
- pIC50 [27]: 4.54
- pIC50 [28]: 4.67
- pIC50 [29]: 4.03
- Activity (TK6 [30]): Non-Toxic
- Activity (TK6 [31]): Toxic
- Papp [32]: 20.7 ×10⁻⁶ cm/s
- MIC90 (Staphylococcus aureus [33]): 0.5 µg/mL (≈ 1.23 µM)
- pIC50 (DNA gyrase): 5.74
- pIC50 (Topoisomerase IV): 5.21

SMILES: Cc1nc2c(=O)n3c4c(c(N5CCC(CN)C5)c(F)cc4c2o1)OC[C@H]3C (stereo partly drawn)
- MIC (Staphylococcus aureus [1]): 64 µg/mL (≈ 172 µM)
- MIC (Streptococcus pneumoniae): 128 µg/mL (≈ 344 µM)
- MIC (Escherichia coli): 64 µg/mL (≈ 172 µM)
- MIC (Haemophilus influenzae): 128 µg/mL (≈ 344 µM)

SMILES: CNCC1CCN(c2c(F)cc3c4oc(C)nc4c(=O)n(C4CC4)c3c2Cl)C1 (stereo not drawn)
- MIC (Staphylococcus aureus [1]): 0.25 µg/mL (≈ 0.617 µM)
- MIC (Streptococcus pneumoniae): 0.25 µg/mL (≈ 0.617 µM)
- MIC (Escherichia coli): 1 µg/mL (≈ 2.47 µM)
- MIC (Haemophilus influenzae): 1 µg/mL (≈ 2.47 µM)
- solubility thermodynamic [34]: 1180 µg/mL (≈ 2920 µM)

SMILES: Cc1nc2c(=O)n(C3CC3)c3c(Cl)c(N4CCNCC4)c(F)cc3c2o1
- MIC (Staphylococcus aureus [1]): 0.25 µg/mL (≈ 0.663 µM)
- MIC (Streptococcus pneumoniae): 4 µg/mL (≈ 10.6 µM)
- MIC (Escherichia coli): 0.5 µg/mL (≈ 1.33 µM)
- MIC (Haemophilus influenzae): 0.5 µg/mL (≈ 1.33 µM)
- solubility thermodynamic [34]: 885 µg/mL (≈ 2350 µM)

SMILES: Cc1nc2c(=O)n3c4c(c(N5CCC(CN)C5)c(F)cc4c2o1)OC[C@@H]3C (stereo partly drawn)
- MIC (Staphylococcus aureus [1]): 0.5 µg/mL (≈ 1.34 µM)
- MIC (Streptococcus pneumoniae): 0.5 µg/mL (≈ 1.34 µM)
- MIC (Escherichia coli): 2 µg/mL (≈ 5.37 µM)
- MIC (Haemophilus influenzae): 4 µg/mL (≈ 10.7 µM)

SMILES: Cc1nc2c(=O)n(C3CC3)c3c(Cl)c(N4CCC(N)CC4)c(F)cc3c2o1
- MIC (Staphylococcus aureus [1]): 0.25 µg/mL (≈ 0.64 µM)
- MIC (Streptococcus pneumoniae): 0.5 µg/mL (≈ 1.28 µM)
- MIC (Escherichia coli): 0.5 µg/mL (≈ 1.28 µM)
- MIC (Haemophilus influenzae): 1 µg/mL (≈ 2.56 µM)
- solubility thermodynamic [34]: 922 µg/mL (≈ 2360 µM)
